Measured values as given in ChEMBL document CHEMBL1201862, “PubChem BioAssay data set” (2004).
Activity calls are given as the source filed them. Cut-off read from the data, not from the text of the source, for most assays here: actives have a measured EC50 and inactives only a lower limit.

How the values were obtained:
[1] = alpha-synuclein stem-loop luciferase translation blockers – H4 neuroglioma cells, luminescence, confirmation (AID 1988); type: functional, cell-based
[2] = Luminescence Cell-Based Dose Response HTS to Identify Inhibitors of 5'UTR Stem-Loop Driven Prion Protein mRNA Translation in H4 Neuroglioblastoma Cells. [Related pubchem assays: 1827 (Project Summary), 1813 (Primary HTS)]; type: functional
[3] = HEK-293T cell viability reduction – luminescence, B-cell screen hits, cytotoxicity control for BCR NF-kB inhibitor project, dose response (AID 489021); type: functional, cell-based;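 note: HEK-293T cells carrying an NF-kB luciferase reporter; cells exposed to compound for about 14 hours before viability readout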
[4] = luciferase reporter signal suppression in cells – H4 neuroglioma cells, luminescence, dose response (AID 1990); type: functional, cell-based
[5] = molecular target: T1, Heat shock factor protein 1 (Mus musculus, UniProt P38532); experiment: decrease of HSF1-responsive luciferase luminescence – cell-based, NIH3T3, dose retest, confirmation (AID 2382); type: functional;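 note: NIH3T3 fibroblasts with HSF1-driven luciferase reporter stressed by proteasome inhibitor MG132; luminescence from HSF1-driven luciferase expression after 8 hours of MG132 stress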
T1 sequence (P38532 whole entry): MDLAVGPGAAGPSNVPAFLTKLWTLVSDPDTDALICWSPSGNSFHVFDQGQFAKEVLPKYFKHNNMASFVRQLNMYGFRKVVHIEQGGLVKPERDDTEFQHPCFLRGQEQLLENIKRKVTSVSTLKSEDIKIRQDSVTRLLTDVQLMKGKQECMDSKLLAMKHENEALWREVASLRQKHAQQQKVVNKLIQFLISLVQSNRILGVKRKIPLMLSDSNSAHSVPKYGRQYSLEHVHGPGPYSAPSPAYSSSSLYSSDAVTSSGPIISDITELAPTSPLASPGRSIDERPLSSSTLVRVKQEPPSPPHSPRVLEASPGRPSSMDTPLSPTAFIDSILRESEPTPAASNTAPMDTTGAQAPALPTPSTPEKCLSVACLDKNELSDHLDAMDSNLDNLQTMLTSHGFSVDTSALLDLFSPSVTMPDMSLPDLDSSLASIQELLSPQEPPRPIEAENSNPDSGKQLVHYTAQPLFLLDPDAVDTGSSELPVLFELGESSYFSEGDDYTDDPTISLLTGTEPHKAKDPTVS

Protein skinhead-1 = molecular target: T2, Protein skinhead-1 (Caenorhabditis elegans, UniProt P34707); type: functional
T2 sequence (P34707 whole entry): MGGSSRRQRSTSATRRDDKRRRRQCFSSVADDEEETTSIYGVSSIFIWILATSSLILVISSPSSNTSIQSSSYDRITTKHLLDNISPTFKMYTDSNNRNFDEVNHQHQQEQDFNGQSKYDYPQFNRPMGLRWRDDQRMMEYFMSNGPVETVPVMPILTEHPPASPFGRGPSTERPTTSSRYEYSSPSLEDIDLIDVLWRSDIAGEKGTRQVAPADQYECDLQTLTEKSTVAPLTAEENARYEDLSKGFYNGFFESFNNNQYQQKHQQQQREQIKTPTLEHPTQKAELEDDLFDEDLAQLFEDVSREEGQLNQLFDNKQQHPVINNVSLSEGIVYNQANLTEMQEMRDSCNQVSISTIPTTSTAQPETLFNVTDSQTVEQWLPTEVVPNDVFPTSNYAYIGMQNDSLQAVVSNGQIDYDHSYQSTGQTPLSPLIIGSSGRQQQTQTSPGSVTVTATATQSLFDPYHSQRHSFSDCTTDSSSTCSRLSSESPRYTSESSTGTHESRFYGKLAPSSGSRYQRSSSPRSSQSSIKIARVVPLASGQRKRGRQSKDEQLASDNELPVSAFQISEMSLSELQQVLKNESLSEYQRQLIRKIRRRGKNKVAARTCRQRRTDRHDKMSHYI

[6] = Luminescence Cell-Based Dose Confirmation HTS to Identify Activators of 5'UTR Stem-Loop Driven Alpha-Synuclein mRNA Translation in H4 Neuroglioblastoma Cells. [Related pubchem assays: 1829 (Project Summary), 1814 (Primary HTS)]; type: functional
H4 = experiment: Luminescence Cell-Based Dose Response HTS to Identify Activators of 5'UTR Stem-Loop Driven Prion Protein mRNA Translation in H4 Neuroglioblastoma Cells. [Related pubchem assays: 1829 (Project Summary), 1814 (Primary HTS)]; type: functional; details: Homo sapiens
[7] = Luminescence Cell-Based Dose Response HTS to Identify Activators of Luciferase Translation or Activity in H4 […] Cells. [Related pubchem assays: 1829 (Project Summary), 1814 (Primary HTS)]; type: functional
Aminopeptidase N = molecular target: T3, Aminopeptidase N (Plasmodium falciparum FcB1/Columbia, UniProt O96935); experiment: malaria alanyl aminopeptidase activity blockers – biochemical, fluorogenic H-Leu-NHMec substrate, 1536-well (AID 1445); design: species or system Plasmodium falciparum 3D7, 3D7
T3 sequence (O96935 whole entry): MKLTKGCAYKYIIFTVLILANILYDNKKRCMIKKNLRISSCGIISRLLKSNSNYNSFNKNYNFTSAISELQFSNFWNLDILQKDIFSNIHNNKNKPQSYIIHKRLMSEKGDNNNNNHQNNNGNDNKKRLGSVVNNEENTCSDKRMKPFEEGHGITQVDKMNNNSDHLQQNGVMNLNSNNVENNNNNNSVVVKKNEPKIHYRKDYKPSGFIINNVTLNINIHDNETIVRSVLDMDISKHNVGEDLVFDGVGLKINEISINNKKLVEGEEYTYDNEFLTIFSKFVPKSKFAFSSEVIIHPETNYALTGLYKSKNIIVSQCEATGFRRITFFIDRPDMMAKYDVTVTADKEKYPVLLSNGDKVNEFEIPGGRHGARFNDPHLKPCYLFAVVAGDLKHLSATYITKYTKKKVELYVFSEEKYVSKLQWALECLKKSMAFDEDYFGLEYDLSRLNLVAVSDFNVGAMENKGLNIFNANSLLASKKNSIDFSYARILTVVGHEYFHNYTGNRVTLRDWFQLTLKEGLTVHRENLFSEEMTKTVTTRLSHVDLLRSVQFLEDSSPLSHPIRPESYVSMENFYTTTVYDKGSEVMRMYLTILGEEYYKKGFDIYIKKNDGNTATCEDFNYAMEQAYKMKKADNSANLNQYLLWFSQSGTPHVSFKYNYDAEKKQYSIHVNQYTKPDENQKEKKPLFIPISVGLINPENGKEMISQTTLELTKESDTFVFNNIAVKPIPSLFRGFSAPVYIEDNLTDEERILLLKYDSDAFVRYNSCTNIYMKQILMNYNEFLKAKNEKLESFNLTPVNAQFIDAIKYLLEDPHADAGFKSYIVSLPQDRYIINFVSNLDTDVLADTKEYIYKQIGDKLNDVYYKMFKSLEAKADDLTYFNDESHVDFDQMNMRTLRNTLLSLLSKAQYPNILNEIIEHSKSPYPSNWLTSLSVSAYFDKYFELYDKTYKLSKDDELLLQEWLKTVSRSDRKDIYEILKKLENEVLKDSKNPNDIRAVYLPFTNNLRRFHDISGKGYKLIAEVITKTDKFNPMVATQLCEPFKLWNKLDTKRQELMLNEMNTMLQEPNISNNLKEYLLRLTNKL

HEK293 [8] = experiment: cells; type: functional, cell-based; details: Homo sapiens
HEK293 [9] = experiment: NOD2 signaling inhibitors in MDP-stimulated cells, cell-based, uHTS, luminescence (AID 2001); type: functional; details: Homo sapiens
HEK293 [10] = experiment: cells; type: functional, cell-based; details: Homo sapiens; remark: listed apart in the source
HEK293 [11] = experiment: inhibition of NOD1-driven NF-kB reporter – cell-based, luminescence, uHTS, primary screen (AID 1578); type: functional; details: Homo sapiens

For `COc1ccccc1/C=C1\SC(=S)N(CCC(=O)Nc2cc(C)on2)C1=O`, the EC50 [1] was > 120 µM (not active), the EC50 [2] was 27.8 µM (active) and the IC50 [3] was > 80 µM (inactive). The EC50 [4] was 30 µM (active).
In the case of `Cc1ccc2c(c1)c(C)c(C)n2CC(O)Cn1nnc2ccccc21` (stereo unspecified), the EC50 [5] is reported as > 195 µM (not active), the IC50 (Protein skinhead-1) is reported as > 100 µM (inactive) and the EC50 [6] is reported as 20.9 µM (active). For the same compound, the EC50 (H4) was 22.3 µM (active) and the EC50 [7] was 63.4 µM (active).
With `CCc1cc2c(CN3CCN(C)CC3)cc(=O)oc2cc1O` the IC50 (Aminopeptidase N) was 47.7 µM (active).
With `Cc1cc(C)nc(Sc2ccc([N+](=O)[O-])cc2[N+](=O)[O-])n1` the IC50 (HEK293 [8]) was 6.2 µM (active), the IC50 (HEK293 [9]) was 14.3 µM (inactive) and the IC50 [3] was > 80 µM (inactive). For the same compound, the IC50 (HEK293 [10]) was > 20 µM (inactive) and the EC50 (HEK293 [11]) was > 20 µM (inactive).
In the case of `Cc1c(CCC(=O)O)c(=O)oc2cc3occ(-c4ccccc4)c3cc12`, the IC50 (Aminopeptidase N) is reported as 26.7 µM (active).
In the case of `O=C(Nc1ccc2oc(-c3ccccc3)nc2c1)c1cccs1`, the EC50 [6] is reported as < 0.1 µM (active), the EC50 (H4) is reported as > 120 µM (not active) and the EC50 [7] is reported as 0.131 µM (active).
In the case of `O=C(COC(=O)c1cc(S(=O)(=O)Nc2ccccc2Cl)ccc1O)Nc1nc2ccccc2s1`, the IC50 (Aminopeptidase N) is reported as 44.4 µM (active).
In the case of `Cc1ccc(C(=O)NC2CCN(CC(=O)Nc3cccc([N+](=O)[O-])c3)CC2)cc1`, the IC50 (Aminopeptidase N) is reported as 102 µM (active).
